Measurements published in US20120178626A1, “SYNERGISTIC HERBICIDAL COMPOSITION CONTAINING PROPYZAMIDE AND BENFLURALIN” (DOW AGROSCIENCES LLC, priority 2011, published 2012).

How the values were obtained:
Test in all cases: Field trial, percent visual weed control, soil-applied tank mixes
Type in all cases: in vivo
Details in all cases: applied to soil
[1] = system: Shepherds purse (Capsella bursa-pastoris, CAPBP)
Procedure: (§1) These trials were conducted under field conditions in USA. Trial sites were located in California. The trials were conducted using normal small plot research methodology. Trial plots were between 2 to 4.5 meters (m) wide by 5.5 to 10 m long. All treatments were applied using a randomized complete block trial design with 4 replications per treatment. The trial sites had naturally occurring populations of weeds. The weed spectrum included, but was not limited to, redroot pigweed (Amaranthus retroflexus, AMARE), Shepherds purse (Capsella bursa-pastoris, CAPBP) and Venice mallow (Hibiscus trionum, HIBTR). Treatments consisted of tank mixes of the commercial formulations of propyzamide and benfluralin applied in water directly to the soil. The application volumes were between 93.5 to 187 liters per hectare (L/ha). All application were made using precision gas backpack hand sprayers using a 2 or 3 m boom using flat fan (80° or 110°) nozzles to broadcast the treatments on the soil.
(§2) The treated plots and control plots were rated blind at various intervals after application. Ratings were based of Percent (%) Visual weed control, where 0 corresponds to no control and 100 corresponds to complete control.
(§3) Data was collected for all trials and analyzed using various statistical methods.
(§4) Colby's equation was used to determine the herbicidal effects expected from the mixtures (Colby, S. R. Calculation of the synergistic and antagonistic response of herbicide combinations. Weeds 1967 15, 20-22).
(§5) The following equation was used to calculate the expected activity of mixtures containing two active ingredients, A and B:
(§6) A=observed efficacy of active ingredient A at the same concentration as used in the mixture;
(§7) B=observed efficacy of active ingredient B at the same concentration as used in the mixture.

[2] = system: Venice mallow (Hibiscus trionum, HIBTR)
Procedure: as §1, §2, §3, §4, §5, §6, §7

[3] = system: redroot pigweed (Amaranthus retroflexus, AMARE)
Procedure: as §1, §2, §3, §4, §5, §6, §7

[4] = propyzamide 0, benfluralin 340 g ai/ha, 50 Days After Application
[5] = propyzamide 210 g ai/ha, benfluralin 0, 50 Days After Application

| Structure (SMILES) | % Weed Control CAPBP, Ob (percent control observed) ([1]; propyzamide 0, benfluralin 670 g ai/ha, 50 Days After Application) [%] | % Weed Control HIBTR, Ob (percent control observed) [2, 4] [%] | % Weed Control AMARE, Ob (percent control observed) [3, 4] [%] | % Weed Control CAPBP, Ob (percent control observed) [1, 5] [%] | % Weed Control HIBTR, Ob (percent control observed) [2, 5] [%] | % Weed Control AMARE, Ob (percent control observed) [3, 5] [%] |
| --- | --- | --- | --- | --- | --- | --- |
| CCCCN(CC)c1c([N+](=O)[O-])cc(C(F)(F)F)cc1[N+](=O)[O-] [Benfluralin, N-butyl-N-ethyl-2,6-dinitro-4-(trifluoromethyl)-benzenamine] | 3 | 0 | 0 |  |  |  |
| C#CC(C)(C)NC(=O)c1cc(Cl)cc(Cl)c1 [Propyzamide, 3,5-dichloro-N-(1,1-dimethyl-2-propynyl)-benzamide] |  |  |  | 20 | 20 | 13 |
